In US20040223983A1, “Pharmaceutical preparations, use of these preparations and process for increasing the biovailability of pharmaceutical substances to be administered perorally” (priority 2002, published 2004):
≈ marks a conversion by molar mass, not a printed value. Where “and” joins values, the source holds several entries; their conditions need not be identical. Equal entries are not always repeated. Where two headings read alike, the source gives them in different places.

Legend:
[1] = target: human, intestinal P-gp- transporters (Homo sapiens, UniProt P08183); experiment: P-gp- transporter test (calcein AM, MATU cells); conditions: ratio of fluorescence intensity test solution to blank
From the text: In this test, the activity to inhibit the transporters is characterized via ratio (R) that indicates the ratio of the fluorescence intensity of the test solution to the fluorescence intensity of the blank and is directly proportional to inhibiting the P-gp- transporters. Fluorescence intensity test solution corresponds to fluorescence intensity, measured at 485/535 nm (excitation or emission), of cells that contain test solution and calcein AM working solution.
For this purpose, a suspension of human breast cancer cell lines, MATU-cell lines (Max-Dellbrück-Centrum (MDC)-Berlin-Buch; 40,000 cells/well/200 μl) is first added to a microtiter plate (Greiner black 96 plates, clear bottom, sterile). […]
Then, the addition of calcein AM working solution (20 μl/well) to all wells is carried out, i.e., with and without test solution. […] After incubation is completed, the fluorescence is measured in a plate-fluorescence reader (Fluostar®, B&L Systems, Maarssen) at 485/535 nm (excitation or emission).
The following ratio: ratio (R) of the fluorescence intensity of the test solution to the fluorescence intensity of the blank is determined.
The fluorescence intensity of the test solution corresponds to the fluorescence intensity, measured at 485/535 nm (excitation or emission), of the cells that contain the test solution and the calcein AM working solution.

17β-HSD2 = target: T1, 17β-HSD2 (Homo sapiens, UniProt P37059); experiment: Metabolic stability, in vitro 17β-HSD2 test on intestinal microsomes; format: in vitro ADME; conditions: % of starting value of AE2, n=2
T1 construct: Intestinal microsomes (InVitro Technologies); protein content: 24 mg/ml; tissue InVitro Technologies; host or cells: intestinal microsomes
T1 sequence (P37059 1-387): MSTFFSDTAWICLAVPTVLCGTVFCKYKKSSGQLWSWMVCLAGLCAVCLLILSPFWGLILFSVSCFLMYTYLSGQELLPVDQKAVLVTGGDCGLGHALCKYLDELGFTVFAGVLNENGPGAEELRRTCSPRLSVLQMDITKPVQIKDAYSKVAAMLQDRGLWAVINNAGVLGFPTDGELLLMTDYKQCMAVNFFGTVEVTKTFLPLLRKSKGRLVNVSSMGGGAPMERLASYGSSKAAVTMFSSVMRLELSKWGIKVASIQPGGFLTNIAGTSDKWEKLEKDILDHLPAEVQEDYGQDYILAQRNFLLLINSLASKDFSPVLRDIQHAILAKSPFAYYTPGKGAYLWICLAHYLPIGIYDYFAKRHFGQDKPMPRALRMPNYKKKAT
From the text: Pharmaceutical preparations according to the invention that contain steroids that have a secondary, beta-position hydroxyl group in 17-position of the sterane skeleton inhibit the 17β-HSD 2, so that less 17-keto-biotransformation product is produced. The inhibition potential is directly proportional to the mass proportion of the formulation according to the invention. […] Example 5; FIG. 3). It can be seen from this that formulations according to the invention are suitable to inhibit 17β-HSD 2.
17β-HSD2 test on microsomes of intestinal origin. Metabolic stability of 0.3 μM of AE2 in an intestinal microsome suspension and production of 17-ketone metabolites after 30 minutes based on the concentration (m/v) of a formulation according to the invention that contains Cremophor®EL and Transcutol®P, Smix 9:1, 20% (m/m), Miglyol®812.
A formulation according to the invention, produced analogously to Example 1a) and containing Cremophor®EL and Transcutol®P, Smix 9:1, 20% (m/m) Miglyol®812, is tested for its property to inhibit 17β-HSD2 in intestinal microsomes. 17β-HSD2 mediates the intestinal enzymatic dehydrogenation of an OH group in 17-position of the sterane skeleton to form a ketone group. An inhibition of the 17β-HSD2 is measured via a test substance AE2, which is the substrate of this enzyme, and is biotransformed into a 17-keto product. The ratio of the AE2 concentration and the 17-ketone-biotransformation product is determined at specific times (0, 10, 20, 30, 45 and 60 minutes) in each case for the starting-AE2 concentration in % (m/m).
For these tests, the following materials are used:
Na-Phosphate buffer: 100 mmol of Na2HPO4×2H2O and 100 mmol of NaH2PO4×H2O
Test substance solution of AE2: AE2 50 μmol in MeOH (in the test batch 0.3 μmol)
Formulation batches of the above-mentioned formulation according to the invention (% m/v): 0%, 0.00441%, 0.0147%, 0.0441%, 0.147% and 0.441% formulation in Na-phosphate buffer (in the test batch 0%, 0.003%, 0.01%, 0.03%, […] and 0.3% formulation).
Cofactor solution: 2 ml of glucose-6-phosphate (160 mmol)/MgCl2 (80 mmol)-mixture is added to 400 μl of a glucose-6-phosphate-dehydrogenase solution, then 15.6 mg of NADP and 13.4 mg of NAD are added.
Microsome solution: Intestinal microsomes (InVitro Technologies; protein content: 24 mg/ml; CYP450 content; 0.058 nmol/mg of protein) Thawed in a water bath at 37° C. (˜60 seconds) and diluted to a concentration of 5 mg/ml of protein with Na-phosphate buffer.
In each case, 170 μl/well of the formulation buffer and 5 μl/well of test substance solution of AE2 are introduced into the corresponding wells, whereby double values are set for each measuring time (0, 10, 20, 30, 45 and 60 minutes).
In each case, 250 μl of ice-cold MeOH is added at the 0-minute values. Immediately after, 25 μl of microsome solution and 50 μl of cofactor solution are added to all wells. The samples of the 0-minute values are stored without incubation at ˜−20° C. for about 24 hours. The other samples are incubated in each case for 10, 20, 30, 45 and 60 minutes at 37° C., and the dehydrogenation reaction is stopped after these times by the addition of 250 μl of ice-cold MeOH in each case. The samples are stored for about 24 hours before they are measured by HPLC at ˜−20° C. and they are centrifuged before HPLC analysis at 3000 rpm, whereby the supernatant is measured.

Lipophilicity (log P) = format: physicochemical
[2] = target: T2, Recombinant, Human Cytochrome P450 2C19 Isoenzyme (Homo sapiens, UniProt P33261); experiment: Cytochrome P450 inhibition test, in vitro CYP test (2C19); format: biochemical
T2 construct: purchased Gentest Corp., Woburn, Mass., USA
Method: (§1) In this connection, the inhibition of the enzymes is characterized via the concentration (IC50, μg/ml) of the adjuvants, in which 50% of the respective isoenzymes are inhibited.
(§2) Stock solutions of the respective test substances or test formulations are produced in acetonitrile and diluted with incubation buffer (3 mg/ml in 2% acetonitrile in the batch); additional concentrations are produced by serial dilution. Concentration of the acetonitrile is at most 2% in all batches.
The incubations are set in 96-hole plate format with 200 μl of total volume in double values. The background batch controls the fluorescence of the batch without enzymes and formulations according to the invention, and the inherent fluorescence of the substances is determined in the buffer dilution. The preparation of the dilutions and the pipetting diagram corresponds to the original instructions of the manufacturer of the test kit (Gentest Corp., Woburn, Mass., USA).
(§3) The batches are started by adding the enzyme/substrate mixture, shaken for 30 or 45 minutes in an incubator at 37° C. and then interrupted with 50 μl of stop solution. The plates are briefly shaken, and the fluorescence intensity is measured in the plate-fluorescence reader at the wavelengths for excitation or emission.
(§4) The development of the fluorescent product forms the basis for the calculation. […] The IC50 value is calculated from the concentration-dependent inhibition.

[3] = target: T3, Recombinant, Human Cytochrome P450 2C9 Isoenzyme (Homo sapiens, UniProt P11712)
Method: as §1, §2
(§5) The incubations are set in 96-hole plate format with 200 μl of total volume in double values. The background batch controls the fluorescence of the batch without enzymes and formulations according to the invention, and the inherent fluorescence of the substances is determined in the buffer dilution. […]
as §3, §4

[4] = target: T4, Recombinant, Human Cytochrome P450 3A4 Isoenzyme (Homo sapiens, UniProt P08684)
Method: as §1, §2, §5, §3, §4

[5] = target: T3, Recombinant, Human Cytochrome P450 2C9 Isoenzyme; experiment: Cytochrome P450 inhibition test, in vitro CYP test (2C9); conditions: substrate 7-MFC, 45 minutes, 37° C.
Method: as §1, §2, §5, §3, §4

[6] = target: T4, Recombinant, Human Cytochrome P450 3A4 Isoenzyme; experiment: Cytochrome P450 inhibition test, in vitro CYP test (3A4); conditions: substrate 7-BFC, 30 minutes, 37° C.
Method: as §1, §2, §5, §3, §4

T2 sequence (P33261 whole entry): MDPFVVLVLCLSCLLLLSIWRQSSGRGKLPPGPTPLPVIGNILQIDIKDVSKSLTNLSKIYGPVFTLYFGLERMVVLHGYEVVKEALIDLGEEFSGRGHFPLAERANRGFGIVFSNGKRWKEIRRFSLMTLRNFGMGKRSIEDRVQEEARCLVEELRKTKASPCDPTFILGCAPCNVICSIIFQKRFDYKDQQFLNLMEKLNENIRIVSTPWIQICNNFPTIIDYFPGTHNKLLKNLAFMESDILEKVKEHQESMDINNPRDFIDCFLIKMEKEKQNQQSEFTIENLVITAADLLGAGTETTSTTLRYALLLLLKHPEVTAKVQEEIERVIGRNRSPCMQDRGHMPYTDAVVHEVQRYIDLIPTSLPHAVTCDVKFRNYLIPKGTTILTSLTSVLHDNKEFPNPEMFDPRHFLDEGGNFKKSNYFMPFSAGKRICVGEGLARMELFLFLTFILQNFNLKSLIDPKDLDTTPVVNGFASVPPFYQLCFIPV
Chain of human, intestinal P-gp- transporters (P08183 whole entry): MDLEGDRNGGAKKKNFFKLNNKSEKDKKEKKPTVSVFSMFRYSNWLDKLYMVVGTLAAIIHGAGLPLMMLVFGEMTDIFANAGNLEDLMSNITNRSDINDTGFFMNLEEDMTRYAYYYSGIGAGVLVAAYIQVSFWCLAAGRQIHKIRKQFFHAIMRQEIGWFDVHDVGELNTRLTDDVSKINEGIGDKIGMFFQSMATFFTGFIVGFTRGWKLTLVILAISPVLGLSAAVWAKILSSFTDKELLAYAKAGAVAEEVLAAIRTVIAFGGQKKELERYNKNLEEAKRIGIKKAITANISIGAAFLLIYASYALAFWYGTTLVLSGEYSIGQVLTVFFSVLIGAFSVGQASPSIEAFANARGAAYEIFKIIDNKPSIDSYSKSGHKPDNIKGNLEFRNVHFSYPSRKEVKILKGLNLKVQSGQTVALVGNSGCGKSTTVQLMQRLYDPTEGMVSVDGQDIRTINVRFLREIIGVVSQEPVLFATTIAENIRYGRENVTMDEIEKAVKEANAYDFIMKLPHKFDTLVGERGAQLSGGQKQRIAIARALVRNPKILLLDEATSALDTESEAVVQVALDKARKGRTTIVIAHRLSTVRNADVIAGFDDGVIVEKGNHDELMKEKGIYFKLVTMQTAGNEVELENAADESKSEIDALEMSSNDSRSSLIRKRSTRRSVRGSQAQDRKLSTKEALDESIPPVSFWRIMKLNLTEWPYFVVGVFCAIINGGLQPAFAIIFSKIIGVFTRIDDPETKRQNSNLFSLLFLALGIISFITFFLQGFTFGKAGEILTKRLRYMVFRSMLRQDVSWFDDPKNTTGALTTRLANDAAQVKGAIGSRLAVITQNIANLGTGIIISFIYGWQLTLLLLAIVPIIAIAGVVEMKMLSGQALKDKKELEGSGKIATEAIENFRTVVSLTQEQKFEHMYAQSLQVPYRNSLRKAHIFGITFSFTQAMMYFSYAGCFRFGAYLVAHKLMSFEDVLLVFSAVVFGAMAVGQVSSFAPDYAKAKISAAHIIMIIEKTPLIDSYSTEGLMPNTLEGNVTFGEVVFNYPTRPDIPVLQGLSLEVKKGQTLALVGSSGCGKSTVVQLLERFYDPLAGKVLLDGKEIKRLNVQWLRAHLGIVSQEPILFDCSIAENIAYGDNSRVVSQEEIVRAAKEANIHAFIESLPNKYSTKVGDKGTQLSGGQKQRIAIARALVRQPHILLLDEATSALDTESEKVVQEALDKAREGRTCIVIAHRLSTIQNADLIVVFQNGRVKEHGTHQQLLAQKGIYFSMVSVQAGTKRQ
T4 sequence (P08684 whole entry): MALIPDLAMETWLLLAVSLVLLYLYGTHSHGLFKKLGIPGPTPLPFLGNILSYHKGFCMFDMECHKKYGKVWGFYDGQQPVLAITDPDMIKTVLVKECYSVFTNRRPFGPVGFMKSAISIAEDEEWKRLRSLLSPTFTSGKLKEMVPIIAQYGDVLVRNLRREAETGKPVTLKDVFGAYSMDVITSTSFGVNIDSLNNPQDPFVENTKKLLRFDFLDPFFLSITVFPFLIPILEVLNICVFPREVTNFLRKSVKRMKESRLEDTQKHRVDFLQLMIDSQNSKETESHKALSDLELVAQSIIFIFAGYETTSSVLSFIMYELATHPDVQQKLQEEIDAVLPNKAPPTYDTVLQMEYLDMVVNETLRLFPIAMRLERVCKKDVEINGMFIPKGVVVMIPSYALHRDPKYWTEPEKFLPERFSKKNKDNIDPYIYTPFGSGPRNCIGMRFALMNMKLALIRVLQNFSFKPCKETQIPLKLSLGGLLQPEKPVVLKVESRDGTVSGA
T3 sequence (P11712 whole entry): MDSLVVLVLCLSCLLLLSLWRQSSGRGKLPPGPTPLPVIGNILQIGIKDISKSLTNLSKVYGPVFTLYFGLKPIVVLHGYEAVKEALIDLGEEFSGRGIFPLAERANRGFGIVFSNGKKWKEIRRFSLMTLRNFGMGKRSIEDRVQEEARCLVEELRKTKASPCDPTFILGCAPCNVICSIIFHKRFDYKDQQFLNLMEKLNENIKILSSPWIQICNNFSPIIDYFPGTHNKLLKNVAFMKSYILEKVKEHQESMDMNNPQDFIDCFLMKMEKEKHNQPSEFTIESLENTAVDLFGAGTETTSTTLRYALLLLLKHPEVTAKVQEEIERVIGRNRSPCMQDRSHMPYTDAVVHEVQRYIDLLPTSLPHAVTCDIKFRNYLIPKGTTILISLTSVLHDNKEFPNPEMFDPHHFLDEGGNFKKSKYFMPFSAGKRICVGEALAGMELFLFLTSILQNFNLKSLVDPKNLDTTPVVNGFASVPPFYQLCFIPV

Question: With CN(CCCCC[C@@H]1Cc2cc(O)ccc2[C@@H]2[C@@H]1[C@@H]1CC[C@H](O)[C@@]1(C)C[C@@H]2F)CCCSCCCC(F)(F)C(F)(F)F [AE1, 11β-fluoro-7α-{5-[N-methyl-N-3-(4,4,5,5,5-pentafluoropentylthio)-propylamino]-pentyl}-estra-1,3,5(10)-triene-3,17β-diol] as the compound, how does the R ([1]; P-gp substrate) read?
Answer: Its R is 2.43.

Question: With CN(CCCCCCC(F)(F)C(F)(F)C(F)(F)C(F)(F)F)CCCCC[C@@H]1Cc2cc(O)ccc2[C@@H]2[C@@H]1[C@@H]1CC[C@H](O)[C@@]1(C)C[C@@H]2F [AE2, 11β-fluoro-7α-{5-[methyl-(7,7,8,8,9,9,10,10,10-nonafluorodecyl)amino]pentyl}estra-1,3,5(10)-triene-3,17β-diol] as the compound, how does the “amount of genuine AE2 after 30 minutes in the microsome suspension” value (“amount of genuine AE2 after 30 minutes” for short) (17β-HSD2; 0.0% Cremophor EL/Miglyol 812/Transcutol P (72T/20T/8T) in test batch) read?
Answer: The value was 64% and 66%.

Question: And the “amount of genuine AE2 after 30 minutes” value (17β-HSD2; 0.003% Cremophor EL/Miglyol 812/Transcutol P (72T/20T/8T) in test batch)?
Answer: Its value is 70% and 71%.

Question: What about the “amount of genuine AE2 after 30 minutes” value (17β-HSD2; 0.01% Cremophor EL/Miglyol 812/Transcutol P (72T/20T/8T) in test batch) of the same compound?
Answer: The value was 75% and 76%.

Question: And the “amount of genuine AE2 after 30 minutes” value (17β-HSD2; 0.03% Cremophor EL/Miglyol 812/Transcutol P (72T/20T/8T) in test batch)?
Answer: Its value is 89% and 83%.

Question: And the “amount of genuine AE2 after 30 minutes” value (17β-HSD2; 0.1% Cremophor EL/Miglyol 812/Transcutol P (72T/20T/8T) in test batch)?
Answer: Its value is 109% and 114%.

Question: And the “amount of genuine AE2 after 30 minutes” value (17β-HSD2; 0.3% Cremophor EL/Miglyol 812/Transcutol P (72T/20T/8T) in test batch)?
Answer: The value was 106% and 109%.

Question: What about the logP (Lipophilicity (log P)) of the same compound?
Answer: Its logP is 5.9.

Question: What does the source list for CCCCCCCC/C=C\CCCCCCCC(=O)OCC [Ethyl oleate, Ethyl oleate (EO)]?
Answer: IC50 CYP-2C19 [2]: 325 µg/mL (≈ 1.05 mM); IC50 CYP-2C9 [3]: 195 µg/mL (≈ 0.628 mM); IC50 CYP-3A4 [4]: 117 µg/mL (≈ 0.377 mM)

Question: For CCOCCOCCO [Transcutol ® P, Ethoxydiglycol], which “Maximum R-Value” ([1]; calcein AM, 485/535 nm, MATU cells, test solutions 0.3 to 33.3 μmol) is on record?
Answer: Its value is 1.18.

Question: And the “IC50 CYP-2C19” value [2]?
Answer: Its value is 1400 µg/mL (≈ 10.4 mM).

Question: And the “IC50 CYP-2C9” value [5]?
Answer: Its value is 1500 µg/mL (≈ 11.2 mM).

Question: What about the “IC50 CYP-3A4” value [6] of the same compound?
Answer: The value was 755 µg/mL (≈ 5.63 mM).

Question: Which “IC50 CYP-2C19” value [2] does the source give for “C8-C12 triglycerides (MCT) [Miglyol ® 812]” here?
Answer: The value was 100 µg/mL.

Question: Which “IC50 CYP-2C19” value [2] does the source give for “PEG-40-hydrogenated castor oil [Cremophor ® RH40]” here?
Answer: Its value is 11 µg/mL.

Question: For PEG-400-monoricinoleate [Estax ® 54], which “IC50 CYP-2C19” value [2] is on record?
Answer: The value was 0.7 µg/mL.

Question: Which “IC50 CYP-2C19” value [2] does the source give for “Polyethylene glycol-35-castor oil [Cremophor ® EL]” here?
Answer: Its value is 10 µg/mL.

Question: Which “IC50 CYP-2C19” value [2] does the source give for Polysorbate 80 [Tween ® 80] here?
Answer: Its value is 8.4 µg/mL.

Question: For Refined castor oil (RIZ), which “IC50 CYP-2C19” value [2] is on record?
Answer: Its value is >3000 µg/mL.
